Source: patent US10526327B2, “Histone demethylase inhibitors” (CELGENE QUANTICEL RESEARCH, INC., priority 2013, dated 2020)

Target: T1, Jarid1B (Homo sapiens, UniProt Q9UGL1)
T1 construct: purchased BPS Bioscience or custom made by MolecularThroughput 50121
T1 sequence (Q9UGL1 2-751): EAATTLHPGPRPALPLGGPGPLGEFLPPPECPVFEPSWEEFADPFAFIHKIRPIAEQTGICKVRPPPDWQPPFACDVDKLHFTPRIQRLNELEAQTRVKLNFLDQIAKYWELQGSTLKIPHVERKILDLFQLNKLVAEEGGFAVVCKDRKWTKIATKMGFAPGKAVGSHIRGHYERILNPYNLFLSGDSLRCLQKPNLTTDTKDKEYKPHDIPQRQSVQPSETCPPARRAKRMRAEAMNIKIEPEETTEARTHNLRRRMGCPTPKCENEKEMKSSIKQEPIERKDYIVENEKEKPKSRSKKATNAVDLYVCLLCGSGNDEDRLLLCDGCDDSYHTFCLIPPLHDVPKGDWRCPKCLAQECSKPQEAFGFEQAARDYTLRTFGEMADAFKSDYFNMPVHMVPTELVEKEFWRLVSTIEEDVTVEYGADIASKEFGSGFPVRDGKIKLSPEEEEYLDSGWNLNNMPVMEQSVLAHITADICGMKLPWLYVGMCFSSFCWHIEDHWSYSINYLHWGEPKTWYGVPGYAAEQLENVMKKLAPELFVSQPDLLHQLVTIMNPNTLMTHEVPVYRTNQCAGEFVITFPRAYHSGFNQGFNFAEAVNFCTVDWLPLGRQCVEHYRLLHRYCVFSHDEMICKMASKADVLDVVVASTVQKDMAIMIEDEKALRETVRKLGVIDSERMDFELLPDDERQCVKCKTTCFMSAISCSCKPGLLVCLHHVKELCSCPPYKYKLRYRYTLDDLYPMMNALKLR
Test: Jarid1B in vitro enzyme inhibition assay (TR-FRET)
Format: biochemical
From the text: This assay determines the ability of a test compound to inhibit Jarid1A, Jarid1B, and JMJD2C demethylase activity. Baculovirus expressed Jarid1A (GenBank Accession #NM_001042603, AA1-1090) was purchased from BPS Bioscience (Cat#50110). Baculovirus expressed Jarid1B (GenBank Accession #NM_006618, AA 2-751) was purchased from BPS Bioscience (Cat #50121) or custom made by MolecularThroughput. Baculovirus expressed JMJD2C (GenBank Accession #BC143571, AA 2-372) was purchased from BPS Bioscience (Cat#50105).
The ability of test compounds to inhibit the activity of Jarid1B was determined in 384-well plate format under the following reaction conditions: 0.8 nM Jarid1B, 300 nM H3K4me3-biotin labeled peptide (Anaspec cat #64357), 2 μM alpha-ketoglutaric acid in assay buffer of 50 mM HEPES, pH7.3, 0.005% Brij35, 0.5 mM TCEP, 0.2 mg/ml BSA, 50 μM sodium L-ascorbate, and 2 μM ammonium iron(II) sulfate. Reaction product was determined quantitatively by TR-FRET after the addition of detection reagent Phycolink Streptavidin-allophycocyanin (Prozyme) and Europium-anti-mono-or di-methylated histone H3 lysine 4 (H3K4me1-2) antibody (PerkinElmer) in the presence of 5 mM EDTA in LANCE detection buffer (PerkinElmer) at a final concentration of 25 nM and 1 nM, respectively.
The assay reaction was initiated by the following: 2 μl of the mixture of 900 nM H3K4me3-biotin labeled peptide and 6 μM alpha-ketoglutaric acid with 2 μl of 11-point serial diluted inhibitor in 3% DMSO was added to each well of the plate, followed by the addition of 2 μl of 2.4 nM Jarid1B to initiate the reaction. The reaction mixture was incubated at room temperature for 30 minutes, and terminated by the addition of 6 μl of 5 mM EDTA in LANCE detection buffer containing 50 nM Phycolink Streptavidin-allophycocyanin and 2 nM Europium-anti-H3K4me1-2 antibody. Plates were read by EnVisionMultilabel Reader in TR-FRET mode (excitation at 320 nm, emission at 615 nm and 665 nm) after 1 hour incubation at room temperature. A ratio was calculated (665/615) for each well and fitted to determine inhibition constant (IC50).

Compound	IC50
OCCOc1nc(O)c2ccncc2n1 [Example 3, 2-(2-hydroxyethoxy)pyrido[3,4-d]pyrimidin-4-ol]	100 to 1000 nM
Oc1nc(OC2CCCC2)nc2cnccc12 [Example 6, 2-cyclopentyloxy-3H-pyrido[3,4-d]pyrimidin-4-one]	100 to 1000 nM
COc1nc(O)c2ccncc2n1 [Example 8, 2-methoxypyrido[3,4-d]pyrimidin-4-ol]	100 to 1000 nM
CCC(C)Oc1nc(O)c2ccncc2n1 (stereo not drawn) [Example 9, 2-butan-2-yloxy-3H-pyrido[3,4-d]pyrimidin-4-one]	1000 to 10000 nM
CC(C)(C)OC(=O)Nc1cccc(Oc2nc(O)c3ccncc3n2)c1 [Example 36, tert-butyl N-[3-(4-hydroxypyrido[3,4-d]pyrimidin-2-yl)oxyphenyl]carbamate]	≤ 100 nM
COc1ccc(Oc2nc(O)c3ccncc3n2)cc1OC [Example 38, 2-(3,4-dimethoxyphenoxy)pyrido[3,4-d]pyrimidin-4-ol]	≤ 100 nM
CC(C)c1cccc(Oc2nc(O)c3ccncc3n2)c1 [Example 39, 2-(3-propan-2-ylphenoxy)pyrido[3,4-d]pyrimidin-4-ol]	≤ 100 nM
Oc1nc(Oc2cccc(F)c2F)nc2cnccc12 [Example 42, 2-(2,3-difluorophenoxy)pyrido[3,4-d]pyrimidin-4-ol]	100 to 1000 nM
COc1c(F)cc(Oc2nc(O)c3ccncc3n2)cc1F [Example 43, 2-(3,5-difluoro-4-methoxyphenoxy)pyrido[3,4-d]pyrimidin-4-ol]	≤ 100 nM
Oc1nc(Oc2ccccc2F)nc2cnccc12 [Example 46, 2-(2-fluorophenoxy)pyrido[3,4-d]pyrimidin-4-ol]	100 to 1000 nM
CCCc1cccc(Oc2nc(O)c3ccncc3n2)c1 [Example 58, 2-(3-propylphenoxy)pyrido[3,4-d]pyrimidin-4-ol]	≤ 100 nM
CN(C)c1ccc(Oc2nc(O)c3ccncc3n2)cc1 [Example 59, 2-[4-(dimethylamino)phenoxy]pyrido[3,4-d]pyrimidin-4-ol]	≤ 100 nM
O=C(c1cc(F)cc(Oc2nc(O)c3ccncc3n2)c1)N1CCOCC1 [Example 60]	≤ 100 nM
COCCn1ncc2ccc(Oc3nc(O)c4ccncc4n3)cc21 [Example 61, 2-{[1-(2-methoxyethyl)-1H-indazol-6-yl]oxy}pyrido[3,4-d]pyrimidin-4-ol]	≤ 100 nM
CCn1cc(Oc2nc(O)c3ccncc3n2)cn1 [Example 62, 2-[(1-ethyl-1H-pyrazol-4-yl)oxy]pyrido[3,4-d]pyrimidin-4-ol]	≤ 100 nM
CC(C)n1cc(Oc2nc3cnccc3c(=O)[nH]2)cn1 [Example 63, 2-{[1-(propan-2-yl)-1H-pyrazol-4-yl]oxy}pyrido[3,4-d]pyrimidin-4-ol]	≤ 100 nM
COCCn1cc(Oc2nc(O)c3ccncc3n2)cn1 [Example 64, 2-{[1-(2-methoxyethyl)-1H-pyrazol-4-yl]oxy}pyrido[3,4-d]pyrimidin-4-ol]	≤ 100 nM
COCCCn1cc(Oc2nc(O)c3ccncc3n2)cn1 [Example 65, 2-{[1-(3-methoxypropyl)-1H-pyrazol-4-yl]oxy}pyrido[3,4-d]pyrimidin-4-ol]	≤ 100 nM

Compound	IC50
Oc1nc(Oc2cnn(C3CCOCC3)c2)nc2cnccc12 [Example 67, 2-{[1-(tetrahydro-2H-pyran-4-yl)-1H-pyrazol-4-yl]oxy}pyrido[3,4-d]pyrimidin-4-ol]	≤ 100 nM
COc1nc(O)c2ccnc(-c3cn(C)cn3)c2n1 [Example 68, 2-methoxy-8-(1-methyl-1H-imidazol-4-yl)pyrido[3,4-d]pyrimidin-4-ol]	≤ 100 nM
CN(C)CCOc1nc(O)c2ccnc(-c3cn(C)cn3)c2n1 [Example 76, 2-[2-(dimethylamino)ethoxy]-8-(1-methylimidazol-4-yl)pyrido[3,4-d]pyrimidin-4-ol]	100 to 1000 nM
Cn1cnc(-c2nccc3c(O)nc(OCC(F)F)nc23)c1 [Example 77, 2-(2,2-difluoroethoxy)-8-(1-methylimidazol-4-yl)pyrido[3,4-d]pyrimidin-4-ol]	≤ 100 nM
Cn1cnc(-c2nccc3c(O)nc(OCCC4CC4)nc23)c1 [Example 78, 2-(2-cyclopropylethoxy)-8-(1-methylimidazol-4-yl)pyrido[3,4-d]pyrimidin-4-ol]	≤ 100 nM
Cn1cnc(-c2nccc3c(O)nc(Oc4cnn(Cc5ccccc5)c4)nc23)c1 [Example 79, 2-(1-benzylpyrazol-4-yl)oxy-8-(1-methylimidazol-4-yl)pyrido[3,4-d]pyrimidin-4-ol]	≤ 100 nM
CC(C)CCn1cc(Oc2nc(O)c3ccnc(-c4cn(C)cn4)c3n2)cn1 [Example 80, 2-[1-(3-methylbutyl)pyrazol-4-yl]oxy-8-(1-methylimidazol-4-yl)pyrido[3,4-d]pyrimidin-4-ol]	≤ 100 nM
Cn1cnc(-c2nccc3c(O)nc(Oc4ccc(F)c(F)c4)nc23)c1 [Example 81, 2-(3,4-difluorophenoxy)-8-(1-methylimidazol-4-yl)pyrido[3,4-d]pyrimidin-4-ol]	≤ 100 nM
COCCOc1ccc(Oc2nc(O)c3ccnc(-c4cn(C)cn4)c3n2)cc1 [Example 82, 2-[4-(2-methoxyethoxy)phenoxy]-8-(1-methylimidazol-4-yl)pyrido[3,4-d]pyrimidin-4-ol]	≤ 100 nM
Cn1cnc(-c2nccc3c(O)nc(Oc4ccc5cnn(C)c5c4)nc23)c1 [Example 83, 8-(1-methylimidazol-4-yl)-2-(1-methylindazol-6-yl)oxypyrido[3,4-d]pyrimidin-4-ol]	≤ 100 nM
CCn1ncc2ccc(Oc3nc(O)c4ccnc(-c5cn(C)cn5)c4n3)cc21 [Example 84, 2-(1-ethylindazol-6-yl)oxy-8-(1-methylimidazol-4-yl)pyrido[3,4-d]pyrimidin-4-ol]	≤ 100 nM
Cc1nn(C)c2cc(Oc3nc(O)c4ccnc(-c5cn(C)cn5)c4n3)ccc12 [Example 85, 2-(1,3-dimethylindazol-6-yl)oxy-8-(1-methylimidazol-4-yl)pyrido[3,4-d]pyrimidin-4-ol]	≤ 100 nM
CC(=O)N1CCC(n2cc(Oc3nc(O)c4ccncc4n3)cn2)CC1 [Example 90, 1-[4-[4-(4-hydroxypyrido[3,4-d]pyrimidin-2-yl)oxypyrazol-1-yl]piperidin-1-yl]ethanone]	≤ 100 nM
C=CC(=O)N1CCC(n2cc(Oc3nc(O)c4ccncc4n3)cn2)CC1 [Example 91, 1-[4-[4-(4-hydroxypyrido[3,4-d]pyrimidin-2-yl)oxypyrazol-1-yl]piperidin-1-yl]prop-2-en-1-one]	≤ 100 nM
O=C(C1CC1)N1CCC(n2cc(Oc3nc(O)c4ccncc4n3)cn2)CC1 [Example 92, cyclopropyl-[4-[4-(4-hydroxypyrido[3,4-d]pyrimidin-2-yl)oxypyrazol-1-yl]piperidin-1-yl]methanone]	≤ 100 nM
O=C(c1ccc(F)cc1)N1CCC(n2cc(Oc3nc(O)c4ccncc4n3)cn2)CC1 [Example 93, (4-fluorophenyl)-[4-[4-(4-hydroxypyrido[3,4-d]pyrimidin-2-yl)oxypyrazol-1-yl]piperidin-1-yl]methanone]	≤ 100 nM
O=S(=O)(C1CC1)N1CCC(n2cc(Oc3nc(O)c4ccncc4n3)cn2)CC1 [Example 94, 2-[1-(1-cyclopropylsulfonylpiperidin-4-yl)pyrazol-4-yl]oxypyrido[3,4-d]pyrimidin-4-ol]	≤ 100 nM
O=S(=O)(c1ccccc1)N1CCC(n2cc(Oc3nc(O)c4ccncc4n3)cn2)CC1 [Example 95, 2-[1-[1-(benzenesulfonyl)piperidin-4-yl]pyrazol-4-yl]oxypyrido[3,4-d]pyrimidin-4-ol]	≤ 100 nM
